Where two headings read alike, the source gives them in different places.
Experiments:
[1] = Stability of radiolabelled complexes in human serum; assay type: in vitro ADME; conditions: human serum (HS), 37 °C
Procedure: (§1) Labeling was carried out with 100–150 MBq gallium-68 in 300 µL of 1 M ammonium acetate (AmAc) buffer pH 5.5 and with 30–40 MBq scandium-44 in 1 mL of 0.25 M AmAc pH 4.0, and aliquots were taken at 1, 3, 5, 10, and 15 min. For lutetium-177, activity of 30–40 MBq in 300 µL of 1 M AmAc pH 5.5 was used, and aliquots were taken at 1, 3, 5, 15, 30, and 60 min. Stability was tested in 500 µL of human serum, phosphate-buffered saline, ethanol, and saline (0.9% isotonic NaCl solution) using ~5 MBq of tracer solution with >95% radiochemical purity. […] HS (human male AB plasma, USA origin) and PBS were purchased from Sigma Aldrich, and 0.9% saline from B. Braun Melsungen AG (Melsungen, Germany).

[2] = Stability of radiolabelled complexes in PBS, saline (NaCl) and ethanol; assay type: physicochemical; conditions: PBS and NaCl, 37 °C
Procedure: as §1

[3] = target: T1, Recombinant human FAP (Homo sapiens, UniProt Q12884); experiment: FAP inhibition assay (IC50, Z-Gly-Pro-AMC substrate); assay type: biochemical; conditions: for Selectivitiy Index (FAP/PREP): ratio of PREP IC50 and FAP IC50; for IC50: mean with standard deviation, n = 3
T1 construct: made in house
T1 sequence (Q12884 1-760): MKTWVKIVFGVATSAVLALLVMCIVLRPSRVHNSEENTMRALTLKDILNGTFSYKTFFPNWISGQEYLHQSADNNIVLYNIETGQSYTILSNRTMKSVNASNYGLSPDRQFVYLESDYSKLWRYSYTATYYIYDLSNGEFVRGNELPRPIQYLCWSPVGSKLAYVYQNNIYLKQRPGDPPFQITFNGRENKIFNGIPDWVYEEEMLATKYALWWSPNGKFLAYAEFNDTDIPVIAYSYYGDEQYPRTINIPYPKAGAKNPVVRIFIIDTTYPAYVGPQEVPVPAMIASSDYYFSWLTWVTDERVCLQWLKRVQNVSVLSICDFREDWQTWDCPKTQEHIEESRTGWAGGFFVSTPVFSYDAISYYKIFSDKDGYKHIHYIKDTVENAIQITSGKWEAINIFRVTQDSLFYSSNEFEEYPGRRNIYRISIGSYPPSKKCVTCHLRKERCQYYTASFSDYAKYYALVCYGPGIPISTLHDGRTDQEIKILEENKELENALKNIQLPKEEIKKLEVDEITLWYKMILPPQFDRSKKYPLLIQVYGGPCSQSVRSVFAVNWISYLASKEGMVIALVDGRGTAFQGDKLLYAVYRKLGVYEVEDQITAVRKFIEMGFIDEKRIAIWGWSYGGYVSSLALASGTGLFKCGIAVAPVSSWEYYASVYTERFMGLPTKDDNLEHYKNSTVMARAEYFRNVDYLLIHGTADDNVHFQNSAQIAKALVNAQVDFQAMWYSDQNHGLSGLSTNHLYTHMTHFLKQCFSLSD
Procedure: (§2) Enzymes: Recombinant human FAP and PREP were expressed and purified as published. Recombinant human dipeptidyl 9 (DPP9) was purified as described by De Decker et al.. Human dipeptidyl peptidase 4 was purified from seminal plasma as published.
(§3) IC50 measurements and counter-screening: IC50-measurements of the probes for FAP and PREP were carried out as published, using, respectively, Z-Gly-Pro-AMC and Suc-Gly-Pro-AMC as the substrate. IC50 experiments were repeated in triplicate, and the results are presented as mean ± standard deviation. Methods and data fitting were performed as published earlier. Screening against DPP4 and DPP9 was performed at final probe concentrations of 10 µM and 1 µM using Ala-Pro-paranitroanilide (pNA) as the substrate at the respective final concentrations of 25 μM (DPP4) and 150 μM (DPP9) at pH 7.4 (0.05 M HEPES-NaOH buffer with 0.1% Tween-20, 0.1 mg/mL BSA, and 150 mM NaCl). Probes were pre-incubated with the respective enzyme for 15 min at 37 °C; afterwards, the substrate was added, and the velocities of pNA release were measured kinetically at 405 nm for at least 10 min at 37 °C. Measurements were executed using the Infinite 200 (Tecan Group Ltd., Mennendorf, Switzerland), and the Magellan software was used to process the data.

[4] = test system: DPPs (DPP4 and DPP9); experiment: Counter-screening against DPP4 and DPP9 (Ala-Pro-pNA substrate); assay type: biochemical, human; conditions: screened at 10 µM and 1 µM, reported as >1 µM if remaining activity more than 50% at 1 µM, n = 2
Procedure: as §2, §3

[5] = target: T1, Recombinant human FAP; parameters: method as in Moon et al. [24]; conditions: mean with standard deviation; ref Moon et al. [24]; cited from earlier work
[6] = target: T2, Recombinant human PREP (Homo sapiens, UniProt P48147); conditions: mean with standard deviation; ref Moon et al. [24]; cited from earlier work
T2 construct: made in house
T2 sequence (P48147 1-710): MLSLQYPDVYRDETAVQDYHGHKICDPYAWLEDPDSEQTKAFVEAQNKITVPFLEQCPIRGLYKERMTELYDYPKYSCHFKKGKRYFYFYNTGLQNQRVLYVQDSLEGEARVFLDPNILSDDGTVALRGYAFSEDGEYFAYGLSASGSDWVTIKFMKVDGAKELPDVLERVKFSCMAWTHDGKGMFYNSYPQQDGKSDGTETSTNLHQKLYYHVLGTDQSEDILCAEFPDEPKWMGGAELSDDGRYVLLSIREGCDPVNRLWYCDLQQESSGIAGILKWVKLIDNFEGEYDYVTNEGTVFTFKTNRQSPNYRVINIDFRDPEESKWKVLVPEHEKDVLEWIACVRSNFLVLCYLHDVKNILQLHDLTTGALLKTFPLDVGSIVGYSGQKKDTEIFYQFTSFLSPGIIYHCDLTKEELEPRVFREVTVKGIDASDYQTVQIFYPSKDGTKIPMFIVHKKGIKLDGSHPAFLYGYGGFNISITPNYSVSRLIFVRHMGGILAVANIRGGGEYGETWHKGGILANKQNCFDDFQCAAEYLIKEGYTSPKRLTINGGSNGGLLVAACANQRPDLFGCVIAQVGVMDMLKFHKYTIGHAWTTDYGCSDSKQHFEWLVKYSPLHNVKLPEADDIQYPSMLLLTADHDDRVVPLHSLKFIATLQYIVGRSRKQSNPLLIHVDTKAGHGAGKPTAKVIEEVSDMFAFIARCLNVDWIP

[7] = target: T2, Recombinant human PREP; experiment: PREP inhibition assay (IC50, Suc-Gly-Pro-AMC substrate); assay type: biochemical; conditions: mean with standard deviation, n = 3
Procedure: as §2, §3

SMILES	intact conjugate (stability) ([2]; 3 d) [%]	intact conjugate (stability) ([2]; 10 days) [%]	Selectivitiy Index (FAP/PREP) [3]	IC50 [3] [µM]	IC50 [7] [µM]	IC50 [4] [µM]	IC50 [5] [µM]	IC50 [6] [µM]	other results
N#C[C@@H]1CC(F)(F)CN1C(=O)CNC(=O)c1ccnc2ccc(OCCCCNc3c(NCCNC(=O)CCCCC4(N(CC(=O)[O-])CC(=O)[O-])CN(CC(=O)[O-])CCN(CC(=O)[O-])C4)c(=O)c3=O)cc12.[177Lu+3] [[^177Lu]Lu-AAZTA^5.SA.FAPi]	> 98	> 95							intact conjugate (stability) ([1]; 1 h): > 99%; intact conjugate (stability) ([1]; 3 h): > 98%; intact conjugate (stability) ([1]; 1 d): > 83%; intact conjugate (stability) ([1]; 2 d): > 64%; intact conjugate (stability) ([1]; 3 d): > 55%; intact conjugate (stability) ([2]; 2 d): > 99%
N#C[C@@H]1CC(F)(F)CN1C(=O)CNC(=O)c1ccnc2ccc(OCCCCNc3c(NCCNC(=O)CCCCC4(N(CC(=O)[O-])CC(=O)[O-])CN(CC(=O)[O-])CCN(CC(=O)[O-])C4)c(=O)c3=O)cc12.[Lu+3] [[^natLu]Lu-AAZTA^5.SA.FAPi]			5818	0.00055 ± 4e-05	3.2 ± 0.6	> 1			
N#C[C@@H]1CC(F)(F)CN1C(=O)CNC(=O)c1ccnc2ccc(OCCCCNc3c(NCCNC(=O)CCCCC4(N(CC(=O)[O-])CC(=O)[O-])CN(CC(=O)[O-])CCN(CC(=O)[O-])C4)c(=O)c3=O)cc12.[Sc+3] [[^natSc]Sc-AAZTA^5.SA.FAPi]			6316	0.00057 ± 4e-05	3.6 ± 0.8	> 1			

Further lines, with some results ahead:

intact conjugate (stability) ([2]; 3 d) [%]	intact conjugate (stability) ([2]; 10 days) [%]	Selectivitiy Index (FAP/PREP) [3]	IC50 [3] [µM]	IC50 [7] [µM]	SMILES	IC50 [4] [µM]	IC50 [5] [µM]	IC50 [6] [µM]	other results
> 98	> 93				N#C[C@@H]1CC(F)(F)CN1C(=O)CNC(=O)c1ccnc2ccc(OCCCCNc3c(NCCNC(=O)CN4CCN(CC(=O)[O-])CCN(CC(=O)[O-])CCN(CC(=O)[O-])CC4)c(=O)c3=O)cc12.[177Lu+3] [[^177Lu]Lu-DOTA.SA.FAPi]				intact conjugate (stability) ([1]; 10 days): > 99%
		6214			N#C[C@@H]1CC(F)(F)CN1C(=O)CNC(=O)c1ccnc2ccc(OCCCCNc3c(NCCNC(=O)CN4CCN(CC(=O)[O-])CCN(CC(=O)[O-])CCN(CC(=O)[O-])CC4)c(=O)c3=O)cc12.[Ga+3] [[^natGa]Ga-DOTA.SA.FAPi]	> 1	0.0014 ± 0.0002	8.7 ± 0.9	
		3125			N#C[C@@H]1CC(F)(F)CN1C(=O)CNC(=O)c1ccnc2ccc(OCCCCNc3c(NCCNC(=O)CN4CCN(CC(=O)[O-])CCN(CC(=O)[O-])CCN(CC(=O)[O-])CC4)c(=O)c3=O)cc12.[Lu+3] [[^natLu]Lu DOTA.SA.FAPi]	> 1	0.0008 ± 0.0002	2.5 ± 0.4	

— PMC8226449, “In Vitro Evaluation of the Squaramide-Conjugated Fibroblast Activation Protein Inhibitor-Based Agents AAZTA^5.SA.FAPi and DOTA.SA.FAPi” (Molecules, 2021)
